Source: the NIST ThermoML archive (doi:10.1016/j.tca.2014.05.029)

Assays:
[1] = Crystal; DTA
[2] = molar heat capacity at constant pressure; conditions: 101.33 kPa, Liquid, Small sample (50 mg) DSC
[3] = Molar enthalpy of transition or fusion; conditions: Crystal; DSC

OC[C@H]1O[C@@](CO)(O[C@H]2O[C@H](CO)[C@@H](O)[C@H](O)[C@H]2O)[C@@H](O)[C@@H]1O [D-sucrose]
Conditions | Molar enthalpy of transition or fusion [kcal/mol] | Normal melting temperature [°C]
[1] | – | 151.2
[3] | 7.65 | –

[2]
Conditions | molar heat capacity at constant pressure [J/K/mol]
331 K | 746.98
340 K | 756.97
350 K | 768.07
360 K | 779.17
370 K | 790.27
380 K | 801.37
390 K | 812.47
400 K | 823.57
410 K | 834.67
420 K | 845.77
424 K | 850.21
430 K | 856.87
440 K | 867.97
450 K | 879.07
460 K | 890.17
470 K | 901.27
480 K | 912.37
490 K | 923.47
500 K | 934.57
510 K | 945.67
520 K | 956.77
530 K | 967.87
540 K | 978.97
550 K | 990.07
560 K | 1001.2
570 K | 1012.3
580 K | 1023.4
590 K | 1034.5
600 K | 1045.6
